The values below come from ChEMBL document CHEMBL1138603, “New Labdane diterpenes as intestinal alpha-glucosidase inhibitor from antihyperglycemic extract of Hedychium spicatum (Ham. Ex Smith) rhizomes” (Bioorg Med Chem Lett, 2009).

For one experiment, the species on record is Rattus norvegicus. Put plainly: Inhibition of rat intestinal alpha-glucosidase activity at 100 ugmL.
A short description of experiment [1]: Inhibition of rat intestinal alpha-glucosidase activity.

Active and inactive are the calls of the source. The rule behind the calls is not given here.

On to `CC(=O)OC1=C(C)[C@H](/C=C/c2ccoc2)[C@@]2(C)CCCC(C)(C)[C@@H]2C1=O`, for which, in the experiment listed under Rattus norvegicus, the inhibition (in general, the share of the control response that was lost under treatment) was found to be 25.7%. On the same count and under the same terms, for `C=C1CC[C@H]2C(C)(C)CCC[C@]2(C)[C@H]1C` the value was “inactive”; for `C=C1[C@@H](O)CC2C(C)(C)CCC[C@]2(C)[C@H]1C/C=C1\CCOC1=O` (stereo partly specified), 11.3%. Consider `C[C@H]1O[C@H](O[C@H]2[C@H](O)[C@@H](O)[C@@H](O[C@H]3[C@H](O)[C@@H](O)C(O)O[C@@H]3CO)O[C@@H]2CO)[C@H](O)[C@@H](O)[C@@H]1N[C@H]1C=C(CO)[C@@H](O)[C@H](O)[C@H]1O` (stereo partly specified) [ACARBOSE], for which inhibition in experiment [1] was half-maximal at 23.8 µM (IC50). For `CC1=CC(=O)[C@H]2C(C)(C)CCC[C@]2(C)[C@H]1/C=C/C1=CC(=O)OC1`, the inhibition in the experiment filed under Rattus norvegicus came to 35.1%. On the same count and under the same terms, as for `CC1(C)CCC[C@]2(C)[C@@H](/C=C/c3ccoc3)C(CO)=CC(=O)[C@@H]12`, the figure is 15.1%. `CC1=CC(=O)[C@H]2C(C)(C)CCC[C@]2(C)[C@H]1/C=C/C1=CC(=O)O[C@H]1O` [SPICATANOL]: the IC50 (commonly the point on the concentration scale where inhibition reaches its midpoint) in experiment [1] stood at 34.1 µM. The same compound came in with an inhibition in the experiment filed under Rattus norvegicus of 89.5%. Turning to `CC1=C(O)C(=O)[C@H]2C(C)(C)CCC[C@]2(C)[C@H]1/C=C/c1ccoc1`, the inhibition in the experiment listed under Rattus norvegicus came to 13.5%. On to `CC1=CC(=O)[C@H]2C(C)(C)CCC[C@]2(C)[C@H]1/C=C/c1ccoc1`, for which the inhibition in the experiment filed under Rattus norvegicus stood at 55.6%. Still for that read-out and setting: for `CO[C@@H]1OC(=O)C=C1/C=C/[C@H]1C(C)=CC(=O)[C@H]2C(C)(C)CCC[C@]12C` the value was 54.1%.
